Data taken from patent US10766942B2, “Fragments of syndecan-2 having anti-angiogenic activity” (Queen Mary University of London, priority 2014, dated 2020).

How the values were obtained:
[1] = test system: murine aortic ring; test: Mouse aortic ring model of angiogenic sprout formation; format: cell-based; conditions: 0.5 μM in medium; sprouts counted after 7 days; murine aortic rings
Protocol: Aortic ring assay: Thoracic aortas dissected from cervically dislocated 180-200 g male wistar rats (Harlan Laboratories) or 6 week old C57BL/6 mice (Charles River) were sliced into 0.5 mm sections and incubated overnight in serum free OptiMEM (Invitrogen) at 37° C. Aortic rings were embedded in type I collagen (1 mg/ml) in E4 media (Invitrogen) containing either GST, syndecan-2 mutant proteins or peritoneal exudates in 48 well plates. Wells were supplemented with OptiMEM with 1% FBS and 10 ng/ml VEGF (R and D systems, 30 ng/ml for murine rings) and incubated at 37° C., 10% CO2. Angiogenic sprouts from rat and mouse aortas were counted after 4 days and 8 days respectively (Method based on that of Nicosia and Ottinetti (Laboratory Investigation 63:115-122, 1990) and modified in De Rossi et al. (Journal of Genetic Syndromes & Gene Therapy 4, 2013).
The peptide was added to the medium and sprouts were counted after 7 days in culture. Data represents the mean of at least 15 rings and error bars represent the SEM. Significance is indicated on the basis of a non-paired students t test (p***<0.001).

[2] = test system: HUVECs; test: Capillary network (tubule) formation of HUVECs on growth factor depleted Matrigel; format: cell-based, human; conditions: 1 μm, FIG. 3B
Protocol: 80,000 HUVECs were seeded into 24 well plates coated with 100 μl/well of growth factor depleted Matrigel (BD Sciences) in the presence of the human syndecan-2 peptides scr or hS2pep at the concentrations indicated (scr corresponds to a scrambled control peptide). Tubule formation was monitored by time lapse microscopy using an Olympus IX81 microscope with a controlled environment chamber set at 37° C., 10% CO2. Images were captured every 30 minutes using a Hamamatsu Orca ER digital camera and processed using Cell^M software (Olympus). (A) Phase contrast images of tubules after 6 hours in culture. (B) Branch points were counted on at least four representative images. A branch point is defined at which two or more tubules meet.
To investigate the inhibitory effect of peptides derived from human syndecan-2, 80,000 HUVECs were seeded into 24 well plates coated with 100 ul/well of growth factor depleted Matrigel in the presence of scr or hS2pep. Tubule formation was monitored by time lapse microscopy (FIG. 3A).

[3] = test system: choroidal neovascularisation; test: Laser-induced choroidal neovascularisation in vivo; set-up: species or system mouse; conditions: C57BL mice; 1 μM; 7 days post injury; injected into the eyes
Protocol: 6 Week old C57BL mice were anaesthetised on day 0 and 3 laser burns were applied to both eyes. On day 3, 1 μl of 4 μM QM107 (hS2pep), PBS or 4 μM scrambled control were injected into both eyes of the animals. On day 7 the choroidal neovascularisation, in response to the laser lesion, were observed by fluorescein angiography. The area of Choroidal neovascularistaion was then calculated by analysis of images using IMAGEJ.
C57BL mice were treated as described above and it is evident from FIG. 11 that around 30% less choroidal neovascularisation occurs in mice treated with 1 μM of QM107 7 days post injury as compared to animals treated with PBS or the scrambled control. N=10 for each condition and significance was calculated using a students t test.

[4] = test system: HUVECs; test: Scratch wound cell migration assay on HUVEC monolayers; format: cell-based, human
Protocol: In this assay scratches are made in confluent monolayers of HUVECS and the cells incubated in the presence or absence of different concentrations of the human syndecan-2 peptides. Cell migration is measured by time lapse microscopy using an Olympus IX81 microscope with a controlled environment chamber set at 37° C., 10% CO2. Images were captured every 30 minutes using a Hamamatsu Orca ER digital camera and processed using Cell^M software (Olympus). […]
In one assay, scratches were made in confluent monolayers of HUVECs and the cells incubated in the presence or absence of different concentrations of hS2pep (human syndecan-2 peptide) and scrambled peptides (FIG. 1A).
Scratch wound migration assays: Scratch wound migration assays were performed on confluent monolayers of ECs. Wounds were made using a pipette tip, and fusion proteins were added to the medium and images were captured every 30 minutes for 12 hours by time lapse microscopy using an Olympus IX81 microscope. Percentage wound closure was calculated and individual cells tracked using Image J.

[5] = test system: murine skin ECs; test: Endothelial cell invasion through Collagen I (transwell); format: cell-based; conditions: 1 uM, counted after 24 hours, vs scr
Protocol: 50,000 skin ECs were seeded and cells which had passed through the matrix were counted after 24 hours. Cells were stained with Calcein (5 μM) and cells imaged using an Olympus IX81 inverted microscope and a Hamamatuse Orca ER digital camera. Fluorescent cells are shown in (A) and the % migrated cells compared to the untreated control is shown in B. Cell numbers were counted from four independent images and error bars represent the SEM. Significance was calculated using 1 way ANOVA with Tukey's multiple comparison p<0.0001).
Invasion through the extracellular matrix is another indicator of angiogenesis. Collagen I matrices containing 1 uM of hS2pep and scr were prepared in an […] transwell. 50,000 murine skin ECs were seeded and cells which had passed through the matrix were counted after 24 hours.
Invasion assay: Invasion assays through collagen and Matrigel matrices were performed in 24-well plates with transwell inserts (Millipore; 8 μm pore size, polyester (PET) membrane). […] Invasion was measured after 6 hours after which time gels were removed with a cotton swab, the filter washed in PBS and stained with calcein (Invitrogen) and the number of cells attached to the filter was counted.

[6] = test system: Matrigel plugs; test: Matrigel plug assay (haemoglobin content); format: in vivo, mouse; conditions: 50 μM incorporated in plug; C57BL6 mice; vs scrambled peptide control or PBS
Protocol: Mice were sacrificed after three days and the plugs excised, photographed and incubated overnight in PBS. Haemoglobin was quantified using Drabkin's reagent (Sigma) as described by the manufacturer. All experiments were performed under the UK legislation for the protection of animals, and at the end of all in vivo procedures involving anaesthesia, animals were humanely killed by cervical dislocation in accordance with UK Home Office regulations. Excised plugs were frozen in liquid nitrogen and subsequently embedded in ice cold OCT, 15 μm sections were made using a cryostat at −20° C. Following fixation with 4% PFA for 5 min and blocking with 10% Normal Goat Serum for 15 min, sections were stained for nuclei (DRAQ5) and the EC marker CD31 overnight. Images were captured using a PASCAL laser-scanning confocal microscope (Carl Zeiss, 10× objective). Quantification was performed using the IMARIS software and Photoshop (Adobe), ECs were identified by co-localization of nuclei with CD31 staining.
Data is from 2 plugs per animal and is the mean of two measurements.

[7] = test system: Choroid explants; test: Choroid explant model of angiogenic sprout formation; format: cell-based, mouse; conditions: doses 0.1 μM to 1 μM, counted after 7 days
Protocol: 18 day old C57BL6 mice were sacrificed by cervical dislocation and eyes were enucleated prior to an incision being made 1 mm below the iris and removal of the iris, cornea lens and retina. The choroid is then removed flattened and cut into 1 mm pieces prior to incubation in serum free OptiMEM o/n at 37° C. Choroid explants are then embedded in a Collagen I matrix containing scrambled or experimental peptides and supplemented with OptiMEM containing 10 ng/ml murine VEGFA. Angiogenic sprouts were counted after 7 days.
The choroid is a vascular bed beneath the retinal pigment epithelium and supplies oxygen and nutrients to the outer retina. The choroid can be readily isolated from the murine eye and when placed in a suitable medium and after 4-6 days in culture vessel sprouting occurs and can be quantified. This assay recapitulates Choroidal neovascularisation, the cause of central vision loss in wet Age Related Macular Degeneration. […] Data is the mean number of sprouts from at least 6 Choroid explants from a total of 8 animals. Error bars represent the SEM and significance was calculated using a students t test p<0.05.

Substance: hS2pep: Peptide derived from human syndecan-2 (SEQ ID NO 6); development name QM107 (PAEEDTNVYTEKHSDSLF; hS2pep peptide derived from human syndecan-2)
- Angiogenic sprout formation [1]: inhibited
- Capillary network formation (number of branch points) [2]: inhibited
- Reduction of choroidal neovascularisation (area) compared to PBS or scrambled control [3]: around 30%
- Scratch wound closure ([4]; 1 uM, HUVECs, FIG. 1B): greatly reduced
- HUVEC cell migration ([4]; after 4 hours in culture, vs scrambled peptide): significantly inhibited
- Invasion through collagen I [5]: inhibited
- Haemoglobin content of Matrigel plugs [6]: greatly reduced
- Formation of angiogenic sprouts [7]: inhibit the formation of angiogenic sprouts
